Laboratory results reported in patent publication US20130189764A1, “SELECTIVE GROWTH MEDIA” (Oxide Limited, priority 2000, published 2013).
In brackets after ≈: the same amount, converted by molar mass. One block for each compound: values may come before it.

What was measured:
Citrobacter freundii 370 = test: MIC in DMSal medium (Example 17); assay type: cell-based; details: Citrobacter freundii 370, DMSal medium
[1] = test system: Enterobacter sakazakii 1888; test: MIC in DMSal medium (Example 17); assay type: cell-based; details: Enterobacter sakazakii 1888, DMSal medium
E. coli 607 = test: MIC in DMSal medium (Example 17); assay type: cell-based; details: E. coli 607, DMSal medium
[2] = test system: Salmonella typhimurium 722; test: MIC in DMSal medium (Example 17); assay type: cell-based; details: for MIC: Salmonella typhimurium 722, DMSal medium; for effect on growth of Salmonella typhimurium: DMSal
Experimental: (§1) Isoleucyl-AEP and sarcosyl-alanyl-AEP were compared to ala-AEP (all in DMSal medium) for the ability to selectively recover two clinically important pathogenic bacteria: Salmonella and Staphylococcus aureus.
(§2) For selective growth of Salmonella inhibition of Citrobacter, Enterobacter sakazakii and E. coli is important. […] Sarcosyl-alanyl-AEP used at a concentration of 1.0 μg/ml is sufficient to inhibit the growth of all three undesired bacteria while having no effect on growth of Salmonella typhimurium. […] Alternatively, a concentration of 2.0 μg/ml of isoleucyl-AEP is required to inhibit the growth of Citrobacter, Enterobacter sakazakii and E. coli and this concentration has no effect on the Salmonella typhimurium strain tested.

[3] = test system: Enterococcus faecalis 501; test: MIC in DMSal medium (Example 17); assay type: cell-based; details: Enterococcus faecalis 501, DMSal medium
[4] = test system: Enterococcus faecalis 581; test: MIC in DMSal medium (Example 17); assay type: cell-based; details: Enterococcus faecalis 581, DMSal medium
From the text: as §1

S. aureus (MRSA) 934 = test: MIC in DMSal medium (Example 17); assay type: cell-based; details: S. aureus (MRSA) 934, DMSal medium
From the text: as §1

S. aureus 198 = test: MIC in DMSal medium (Example 17); assay type: cell-based; details: S. aureus 198, DMSal medium
From the text: as §1

S. aureus ss aureus 2355 = test: MIC in DMSal medium (Example 17); assay type: cell-based; details: S. aureus ss aureus 2355, DMSal medium
From the text: as §1

[5] = test system: Enterococcus faecalis 640; test: MIC in DMSal medium (Example 17); assay type: cell-based; details: Enterococcus faecalis 640, DMSal medium
Enterococcus faecium 220 = test: MIC in DMSal medium (Example 17); assay type: cell-based; details: Enterococcus faecium 220, DMSal medium
[6] = test system: Citrobacter, Enterobacter sakazakii and E. coli; test: inhibition of the three undesired bacteria in DMSal (Example 17); assay type: cell-based
Experimental: as §1, §2

[7] = log octanol/water; footnote a: Leo et al (1971); cited from earlier work
[8] = test system: Bacillus subtilis strain OCC 214; test: growth on nutrient agar streak plates, pure culture (Example 1); assay type: cell-based; details: B. subtilis OCC214, nutrient agar, 0-10 mM tested
From the text: In example 1 the sensitivity of Bacillus subtilis strain OCC 214 to alaphosphin or AEP was investigated. […] The organism is known to be LALA-ve, so the observations agree with the known characteristics of the organism.

[9] = test system: Salmonella typhimurium OCC 1870; test: growth on nutrient agar streak plates, pure culture (Example 2); assay type: cell-based; details: S. typhimurium OCC 1870, nutrient agar, 0-10 mM tested
From the text: Example 1 was repeated, using Salmonella typhimurium OCC 1870 as the test organism. The results are shown in FIG. 3, which uses the same key as FIG. 2.

[10] = test system: Enterococcus faecalis OCC 640; test: growth on nutrient agar streak plates, pure culture (Example 3); assay type: cell-based; details: E. faecalis OCC 640, nutrient agar, 0-10 mM tested
From the text: Example 1 was repeated using Enterococcus faecalis OCC 640 as the test organism.

[11] = test system: Klebsiella pneumoniae CMCC 3077; test: growth on nutrient agar streak plates, pure culture (Example 4); assay type: cell-based; details: K. pneumoniae CMCC 3077, nutrient agar, 0-10 mM tested
From the text: Example 1 was repeated using Klebsiella pneumoniae CMCC 3077 as the test organism. The results are shown in FIG. 5, and are qualitatively similar to those obtained in example 2.

[12] = test system: Staphylococcus aureus OCC 102; test: growth on nutrient agar streak plates, pure culture (Example 5); assay type: cell-based; details: S. aureus OCC 102, nutrient agar, all concentrations tested (up to 10 mM)
From the text: Example 1 was repeated using Staphylococcus aureus OCC 102 as the test organism.

K. pneumoniae CMCC 3077 [13] = test: growth on nutrient agar, mixed culture with S. aureus (Example 6); assay type: cell-based, Klebsiella pneumoniae
From the text: (§3) Example 1 was repeated, this time using a mixed culture of K. pneumoniae CMCC 3077 and S. aureus OCC 102. The results for growth in the presence of AEP or alaphosphin are shown in FIGS. 7 and 8 respectively: empty columns represent growth of S. aureus, the shaded columns represent growth of K. pneumoniae. […] Accordingly, there is a considerable alaphosphin concentration range over which S. aureus will readily grow whilst K. pneumoniae will be inhibited. Even if K. pneumoniae cells lyse due to the toxic effect of AEP released intracellularly, the AEP is not toxic for S. aureus at the concentrations involved.

S. aureus OCC 102 = test: growth on nutrient agar, mixed culture with K. pneumoniae (Example 6); assay type: cell-based, Staphylococcus aureus
From the text: as §3

B. subtilis OCC 214 = test: growth on nutrient agar, mixed culture with K. pneumoniae (Example 8); assay type: cell-based, Bacillus subtilis; details: B. subtilis in mixed culture with K. pneumoniae
From the text: (§4) Example 6 was repeated, this time using a mixed culture of B. subtilis OCC 214 and K. pneumoniae CMCC 3077, in the presence of AEP or alaphosphin. The empty columns show the growth of B. subtilis, the shaded columns denote growth of K. pneumoniae.

K. pneumoniae CMCC 3077 [14] = test: growth on nutrient agar, mixed culture with B. subtilis (Example 8); assay type: cell-based, Klebsiella pneumoniae; details: all concentrations tested
From the text: as §4

[15] = test system: Klebsiella pneumoniae CMCC3077; test: total viable count in Nutrient Broth (Example 10); assay type: cell-based; details: 5 mM in Nutrient Broth, 37° C.
Experimental: Growth curve data on the activity of alaphosphin towards Klebsiella spp. was generated. Particular attention was paid to measuring the kinetics of inhibition in broth culture. The media used in this work were Buffered Peptone Water, Nutrient Broth and Tryptone Soya Agar. The media were prepared according to the manufacturer's instructions.
The selective agents, AEP (Cat. No. 06655) and alaphosphin (Cat. No. 05260), were supplied by Fluka. They were dissolved in water at 0.5M concentration, filter-sterilised, and 100 μl added to 10 ml of Nutrient Broth to give a final concentration in the test medium of 5 mM of AEP or alaphosphin respectively.
Klebsiella pneumnoniae CMCC3077 was chosen, as it is a food isolate and work had been carried out previously on this organism using alaphosphin and AEP (see preceding examples). The organism was inoculated into Nutrient Broth and incubated overnight at 37° C. […] The test media were incubated at 37° C., and sampled at hourly intervals. The cultures were serially diluted in Buffered Peptone Water and inoculated onto Tryptone Soya Agar. These plates were incubated overnight at 37° C. and the total viable count made the next day.
Typical results are shown in FIG. 15 which is a graph of total viable count (log10 cfu/ml) against time (hours).

[16] = test system: heat stressed Salmonella typhimurium (OCC 1792); test: resuscitation of heat-stressed cells, microtitre MPN method (Example 14); assay type: cell-based; details: BPW supplemented with 3 different levels of AEP, relative to BPW alone
Experimental: Salmonella typhimurium (OCC 1792) was heat stressed at 51.4° C. for 25 minutes according to the protocol of Stephens et al. (1997 J. Appl. Micro. 8, 445-455). Cells were diluted in 7 different resuscitation media: yeast extract broth with a high reactive oxygen species content that is inhibitory to stressed cells, SPRINT enrichment broth supplemented with Oxyrase that is an optimised resuscitation medium, BPW as the control that has typical resuscitation properties, BPW supplemented with NaCl that is inhibitory to stressed cells, and BPW supplemented with 3 different levels of AEP. Resuscitation was quantified using a microtitre MPN method.
Typical results are shown in FIG. 20 which is a bar chart showing the difference in growth (Log cfu/ml) of the stressed cells in various media relative to growth in BPW alone.

[17] = test system: Salmonella typhimurium OCC 722; test: Bioscreen growth, comparison with conventional selective agents (Example 12); assay type: cell-based; details: Buffered Peptone Water pH 6.8
Experimental: (§5) The following is an example to illustrate the beneficial lower toxic properties of the new selective agents towards the target microorganism, in this case Salmonella. Two selective agents, cefsulodin and novobiocin, as used conventionally in Salmonella isolation from foods (Humphrey and Whitehead, 1992 British Poultry Science 33, 761-768) were compared with alaphosphin. All were dissolved in deionised water, filter sterilised, and an amount of the solution added to either autoclaved Lab-Lemco broth+phosphate buffer (20 g/l; pH 6.0; ala-AEP) or Buffered Peptone Water (pH 6.8; cefsulodin and novobiocin) to give final concentrations of 66, 16.5 and 11 μg/ml respectively. [The different pH values reflect the different pH optima of the selective agents (ala-AEP was also subsequently used in BPW at pH 6.8 and similar results obtained)]. Volumes (300 μl) were then pipetted into the wells of Bioscreen microtitre plates and 30 μl quantities of 1 in 10,000 dilutions of overnight cultures of E. coli OCC 2129 and Salmonella typhimurium OCC 722, added. Plates were then covered, incubated at 37° C., and the opacity of the organism suspensions measured using a Bioscreen instrument.
(§6) Typical results are shown in FIGS. 17-19, which are graphs of optical density against time for S. typhimurium (circles) and E. coli (squares) in the presence (empty symbols) or absence (filled symbols) of 15 μg/ml cefsulodin (FIG. 17), 10 μg/ml novobiocin (FIG. 18) or 60 μg/ml alaphosphin (FIG. 19).

E. coli OCC 2129 = test: as above; assay type: cell-based, Escherichia coli; details: at 12 hours
Experimental: as §5, §6

[18] = test system: E. faecalis 640 and S. aureus 106; test: selective recovery of S. aureus on DMSal agar seeded with E. faecalis (Example 18); assay type: cell-based, Enterococcus faecalis, Staphylococcus aureus; details: 20 μg/ml, DMSal agar with horse serum (50 ml/L), approximately 24 hours at 37° C.
Experimental: The effectiveness of sulfacetamide-β-D-galactoside as a selective agent for recovery of S. aureus in the presence of E. faecalis was tested. Sulfacetamide-β-D-galactoside (20 μg/ml) and horse serum (50 ml/L) was added to DMSal agar to make the test plates; DMSal agar without sulfacetamide-β-D-galactoside served as the control. All plates (with and without sulfacetamide-β-D-galactoside) were seeded with E. faecalis 640 and half of the total number of plates (with and without sulfacetamide-β-D-galactoside) were streaked with S. aureus 106. All plates were incubated for approximately 24 hours at 37° C.
As FIGS. 22a and 22b show, all plates without sulfacetamide-β-D-galactoside supported growth of E. faecalis.

MIC (Citrobacter freundii 370): 1.0 µg/mL (≈ 3.74 µM)
MIC [1]: 0.01 µg/mL (≈ 0.0374 µM)
MIC (E. coli 607): 0.05 µg/mL (≈ 0.187 µM)
MIC [2]: 2.0 µg/mL (≈ 7.48 µM)
MIC [3]: 8 µg/mL (≈ 29.9 µM)
MIC [4]: 8 µg/mL (≈ 29.9 µM)
MIC (S. aureus (MRSA) 934): >100 µg/mL
MIC (S. aureus 198): >100 µg/mL
MIC (S. aureus ss aureus 2355): >100 µg/mL
MIC [5]: 16 µg/mL (≈ 59.9 µM)
MIC (Enterococcus faecium 220): >256 µg/mL
Compound: CNCC(=O)NC(C)C(=O)NC(C)P(=O)(O)O (stereo not drawn)
effect on growth of Salmonella typhimurium ([2]; sarcosyl-alanyl-AEP at 1.0 μg/ml): no effect
concentration sufficient / required to inhibit the growth of all three undesired bacteria [6]: 1.0 µg/mL

Compound: O=[N+]([O-])c1ccccc1O [2-nitrophenol]
Log Partition Coefficient [7]: 2.00^a

Compound: CC(N)P(=O)(O)O [AEP, L-1-aminoethylphosphonic acid, reference compound]
concentration at which growth is inhibited [8]: ≥ 5 mM
concentration at which growth is completely inhibited [9]: > 10 mM
concentration at which growth is completely inhibited [10]: ≥ 5 mM
concentration at which growth is completely inhibited [11]: > 10 mM
sensitivity of growth (in words) [12]: completely insensitive
inhibition of growth (in words) (K. pneumoniae CMCC 3077 [13]): neither organism was inhibited
inhibition of growth (in words) (S. aureus OCC 102): neither organism was inhibited
concentration above which some sensitivity is exhibited (B. subtilis OCC 214): above 5 mM
sensitivity of growth (in words) (K. pneumoniae CMCC 3077 [14]): insensitive
effect on growth compared with Nutrient Broth control [15]: little effect
effect on resuscitation of heat-stressed Salmonella [16]: did not significantly affect

Compound: Nc1ccccc1 [Aniline]
Log Partition Coefficient [7]: 0.94^a

Compound: NC(=O)c1cc[n+](CC2=C(C(=O)O)N3C(=O)[C@@H](NC(=O)[C@@H](c4ccccc4)S(=O)(=O)[O-])[C@H]3SC2)cc1 [cefsulodin]
effect on growth of S. typhimurium ([17]; 15 μg/ml cefsulodin): significantly inhibit
growth of E. coli relative to S. typhimurium (E. coli OCC 2129; 15 μg/ml cefsulodin): substantially outgrows

MIC (Citrobacter freundii 370): 2.0 µg/mL (≈ 8.4 µM)
MIC [1]: 2.0 µg/mL (≈ 8.4 µM)
MIC (E. coli 607): 2.0 µg/mL (≈ 8.4 µM)
MIC [2]: 10 µg/mL (≈ 42 µM)
MIC [3]: 5 µg/mL (≈ 21 µM)
MIC [4]: 5 µg/mL (≈ 21 µM)
MIC (S. aureus ss aureus 2355): >200 µg/mL
MIC [5]: 5 µg/mL (≈ 21 µM)
MIC (Enterococcus faecium 220): 5 µg/mL (≈ 21 µM)
Compound: CCC(C)C(N)C(=O)NC(C)P(=O)(O)O (stereo not drawn) [isoleucyl-AEP, Isoleucyl-AEP]
effect on growth of Salmonella typhimurium ([2]; isoleucyl-AEP at 2.0 μg/ml): no effect
concentration sufficient / required to inhibit the growth of all three undesired bacteria [6]: 2.0 µg/mL

Compound: CO[C@@H]1[C@@H](OC(N)=O)[C@@H](O)[C@H](Oc2ccc3c(O)c(NC(=O)c4ccc(O)c(CC=C(C)C)c4)c(=O)oc3c2C)OC1(C)C [novobiocin]
effect on growth of S. typhimurium ([17]; 10 μg/ml novobiocin): significantly inhibit
growth of E. coli relative to S. typhimurium (E. coli OCC 2129; 10 μg/ml novobiocin): substantially outgrows

Compound: CC(=O)NS(=O)(=O)c1ccc(N[C@@H]2O[C@H](CO)[C@H](O)[C@H](O)[C@H]2O)cc1 [sulfacetamide-β-D-galactoside]
colonies observed on plates seeded with E. faecalis and streaked with S. aureus [18]: only colonies of S. aureus were observed
